Data published in PubChem BioAssay AID2477 (Broad Institute, 2010).
“And” between values parts separate entries of the source, which are not always exact repeats. Equal entries are not always repeated.

Test system: Streptococcus pyogenes UMAA2166 viability, BacTiter-Glo luminescence, 6 h;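 active = compounds whose fitted viability EC50 is at most ten times the top tested dose; inconclusive = flat fit with partial activity, or a poor fit; inactive = the rest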
Test: Streptococcus pyogenes growth inhibition counter-screen, dose response, counter-screen for streptokinase expression inhibitor project, luminescence, BacTiter-Glo, strain UMAA2166 (AID 2477)

Question: Which EC50 (measured here: retest run 2) does the source give for `CCCOc1ccc(-c2nc(Oc3ccc(OC)cc3)c3ccccc3n2)cc1` here?
Answer: > 500 µM

Question: And the EC50 (measured here: retest run 3)?
Answer: > 500 µM

Question: What about the EC50 (measured here: retest run 4) of the same compound?
Answer: > 500 µM

Question: With `CCCOc1ccc(-c2nc(OC)c3ccccc3n2)cc1` as the compound, how does the EC50 (measured here: retest run 2) read?
Answer: > 500 µM

Question: What about the EC50 (measured here: retest run 3) of the same compound?
Answer: > 500 µM

Question: What about the EC50 (measured here: retest run 4) of the same compound?
Answer: > 500 µM

Question: For `COc1ccc(Sc2ccc(NC(=O)c3ccccc3Cl)cc2C#N)cc1`, which EC50 is on record?
Answer: > 500 µM (inactive) and 36.7 µM

Question: What about the EC50 (measured here: retest run 2) of the same compound?
Answer: > 500 µM

Question: And the EC50 (measured here: retest run 3)?
Answer: 45.4 µM

Question: And the EC50 (measured here: retest run 4)?
Answer: > 500 µM

Question: How did the EC50 (measured here: retest run 2) turn out when `COc1cccc(-c2nc(OC(C)C)c3ccccc3n2)c1` was run?
Answer: > 500 µM

Question: What about the EC50 (measured here: retest run 3) of the same compound?
Answer: > 500 µM

Question: What about the EC50 (measured here: retest run 4) of the same compound?
Answer: > 500 µM

Question: With `CCCOc1ccc(-c2nc(Oc3ccccc3)c3ccccc3n2)cc1` as the compound, how does the EC50 (measured here: retest run 2) read?
Answer: > 500 µM

Question: What about the EC50 (measured here: retest run 3) of the same compound?
Answer: > 500 µM

Question: And the EC50 (measured here: retest run 4)?
Answer: > 500 µM

Question: How did the EC50 (measured here: retest run 2) turn out when `CC(C)Oc1nc(-c2ccc(Cl)cc2)nc2ccccc12` was run?
Answer: 47 µM

Question: And the EC50 (measured here: retest run 3)?
Answer: > 500 µM

Question: What about the EC50 (measured here: retest run 4) of the same compound?
Answer: > 500 µM

Question: Which results are given for `COc1ccc(S(=O)(=O)c2ccc(NC(=O)c3ccccc3Cl)cc2C#N)cc1`?
Answer: EC50 (measured here: retest run 2): > 500 µM; EC50 (measured here: retest run 3): > 500 µM; EC50 (measured here: retest run 4): > 500 µM

Question: With `Cc1ccc(Sc2ccc(NC(=O)c3ccc(F)cc3)cc2C#N)cc1` as the compound, how does the EC50 (measured here: retest run 2) read?
Answer: > 500 µM

Question: And the EC50 (measured here: retest run 3)?
Answer: > 500 µM

Question: What about the EC50 (measured here: retest run 4) of the same compound?
Answer: > 500 µM

Question: For `N#Cc1cc(NC(=O)c2ccc(Cl)cc2)ccc1Sc1ccccc1`, which EC50 (measured here: retest run 2) is on record?
Answer: 70.5 µM

Question: And the EC50 (measured here: retest run 3)?
Answer: 69.3 µM

Question: Which EC50 (measured here: retest run 2) does the source give for `COc1ccc(-c2nc(OC)c3ccccc3n2)cc1` here?
Answer: > 500 µM

Question: And the EC50 (measured here: retest run 3)?
Answer: > 500 µM

Question: With `COc1ccc(Sc2ccc(NC(=O)c3cccc(Cl)c3)cc2C#N)cc1` as the compound, how does the EC50 (measured here: retest run 2) read?
Answer: > 500 µM

Question: Which results are given for `COc1nc(-c2ccccc2)nc2ccccc12`?
Answer: EC50 (measured here: retest run 2): > 500 µM; EC50 (measured here: retest run 3): > 500 µM; EC50 (measured here: retest run 4): > 500 µM
